Ends that are not written are not given here. Peptide text beside a SMILES is read from it. * marks the point of attachment. Biotin = O=C1N[C@H]2[C@H](CS[C@H]2CCCCC(=O)*)N1
Legend:
Assay in all cases: G' assay (10 uM PL peptide), results of TABLE 7 and TABLE 12
Type in all cases: binding
[1] = target: T1, PDZ protein (GST-PDZ fusion) (Homo sapiens, UniProt Q6P0Q8)
T1 construct: made in house; host or cells: E. coli (DH5alpha, BL21 or JM109)
Method in brief: (§1)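 Binding classes derive from A450 nm of bound biotin-tagged PL peptide. A score of 5 needs A450 above 4 in more than two repeats.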

[2] = target: T2, PDZ protein (GST-PDZ fusion) (Homo sapiens, UniProt Q5TCQ9)
T2 construct: made in house; host or cells: E. coli (DH5alpha, BL21 or JM109)
T2 sequence (Q5TCQ9 1-1481): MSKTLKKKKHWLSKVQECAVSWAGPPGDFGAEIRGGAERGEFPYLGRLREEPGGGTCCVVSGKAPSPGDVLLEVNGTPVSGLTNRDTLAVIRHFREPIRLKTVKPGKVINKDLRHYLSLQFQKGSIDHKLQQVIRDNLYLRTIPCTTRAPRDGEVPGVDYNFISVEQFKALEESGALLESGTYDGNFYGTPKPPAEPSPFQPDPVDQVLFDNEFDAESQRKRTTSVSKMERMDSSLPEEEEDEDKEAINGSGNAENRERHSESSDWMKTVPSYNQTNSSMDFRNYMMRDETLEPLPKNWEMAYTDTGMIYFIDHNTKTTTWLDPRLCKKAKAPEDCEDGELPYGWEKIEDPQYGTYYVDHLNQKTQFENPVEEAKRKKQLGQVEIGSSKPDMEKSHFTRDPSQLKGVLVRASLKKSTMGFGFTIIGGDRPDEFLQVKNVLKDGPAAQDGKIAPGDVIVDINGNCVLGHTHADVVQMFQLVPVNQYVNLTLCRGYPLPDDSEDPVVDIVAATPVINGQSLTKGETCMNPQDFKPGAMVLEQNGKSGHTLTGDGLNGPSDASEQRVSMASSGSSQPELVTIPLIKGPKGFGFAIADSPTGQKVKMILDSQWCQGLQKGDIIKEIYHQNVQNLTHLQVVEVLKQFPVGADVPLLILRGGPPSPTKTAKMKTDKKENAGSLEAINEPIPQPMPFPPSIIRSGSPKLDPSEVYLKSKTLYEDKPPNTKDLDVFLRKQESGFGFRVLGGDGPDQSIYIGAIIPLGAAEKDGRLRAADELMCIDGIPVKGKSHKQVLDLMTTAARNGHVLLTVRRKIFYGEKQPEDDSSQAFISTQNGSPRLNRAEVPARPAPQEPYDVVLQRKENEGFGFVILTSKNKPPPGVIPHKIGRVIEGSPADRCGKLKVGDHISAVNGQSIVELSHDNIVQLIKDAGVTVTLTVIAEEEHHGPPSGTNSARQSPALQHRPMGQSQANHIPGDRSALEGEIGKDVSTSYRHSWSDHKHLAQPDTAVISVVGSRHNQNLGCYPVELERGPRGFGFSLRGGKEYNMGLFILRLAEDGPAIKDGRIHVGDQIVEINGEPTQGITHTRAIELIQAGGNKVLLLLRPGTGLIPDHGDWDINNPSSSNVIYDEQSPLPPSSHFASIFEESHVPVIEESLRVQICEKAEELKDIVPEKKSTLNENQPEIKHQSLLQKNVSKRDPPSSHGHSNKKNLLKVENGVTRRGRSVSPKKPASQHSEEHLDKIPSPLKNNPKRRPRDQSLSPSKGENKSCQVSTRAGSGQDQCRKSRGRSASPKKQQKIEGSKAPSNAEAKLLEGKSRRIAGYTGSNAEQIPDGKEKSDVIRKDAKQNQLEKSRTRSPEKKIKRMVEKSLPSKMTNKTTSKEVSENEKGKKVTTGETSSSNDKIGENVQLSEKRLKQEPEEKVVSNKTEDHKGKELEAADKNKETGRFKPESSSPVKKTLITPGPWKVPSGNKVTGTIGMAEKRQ
Method in brief: as §1

[3] = test system: PDZ protein (GST-PDZ fusion)
Method in brief: as §1

[4] = target: T3, PDZ protein (GST-PDZ fusion) (Homo sapiens, UniProt Q12923)
T3 construct: made in house; host or cells: E. coli (DH5alpha, BL21 or JM109)
Method in brief: as §1

[5] = PDZ HEMBA 1003117, PDZ Domain 1

T1 sequence (Q6P0Q8 whole entry, the tested form may be a part): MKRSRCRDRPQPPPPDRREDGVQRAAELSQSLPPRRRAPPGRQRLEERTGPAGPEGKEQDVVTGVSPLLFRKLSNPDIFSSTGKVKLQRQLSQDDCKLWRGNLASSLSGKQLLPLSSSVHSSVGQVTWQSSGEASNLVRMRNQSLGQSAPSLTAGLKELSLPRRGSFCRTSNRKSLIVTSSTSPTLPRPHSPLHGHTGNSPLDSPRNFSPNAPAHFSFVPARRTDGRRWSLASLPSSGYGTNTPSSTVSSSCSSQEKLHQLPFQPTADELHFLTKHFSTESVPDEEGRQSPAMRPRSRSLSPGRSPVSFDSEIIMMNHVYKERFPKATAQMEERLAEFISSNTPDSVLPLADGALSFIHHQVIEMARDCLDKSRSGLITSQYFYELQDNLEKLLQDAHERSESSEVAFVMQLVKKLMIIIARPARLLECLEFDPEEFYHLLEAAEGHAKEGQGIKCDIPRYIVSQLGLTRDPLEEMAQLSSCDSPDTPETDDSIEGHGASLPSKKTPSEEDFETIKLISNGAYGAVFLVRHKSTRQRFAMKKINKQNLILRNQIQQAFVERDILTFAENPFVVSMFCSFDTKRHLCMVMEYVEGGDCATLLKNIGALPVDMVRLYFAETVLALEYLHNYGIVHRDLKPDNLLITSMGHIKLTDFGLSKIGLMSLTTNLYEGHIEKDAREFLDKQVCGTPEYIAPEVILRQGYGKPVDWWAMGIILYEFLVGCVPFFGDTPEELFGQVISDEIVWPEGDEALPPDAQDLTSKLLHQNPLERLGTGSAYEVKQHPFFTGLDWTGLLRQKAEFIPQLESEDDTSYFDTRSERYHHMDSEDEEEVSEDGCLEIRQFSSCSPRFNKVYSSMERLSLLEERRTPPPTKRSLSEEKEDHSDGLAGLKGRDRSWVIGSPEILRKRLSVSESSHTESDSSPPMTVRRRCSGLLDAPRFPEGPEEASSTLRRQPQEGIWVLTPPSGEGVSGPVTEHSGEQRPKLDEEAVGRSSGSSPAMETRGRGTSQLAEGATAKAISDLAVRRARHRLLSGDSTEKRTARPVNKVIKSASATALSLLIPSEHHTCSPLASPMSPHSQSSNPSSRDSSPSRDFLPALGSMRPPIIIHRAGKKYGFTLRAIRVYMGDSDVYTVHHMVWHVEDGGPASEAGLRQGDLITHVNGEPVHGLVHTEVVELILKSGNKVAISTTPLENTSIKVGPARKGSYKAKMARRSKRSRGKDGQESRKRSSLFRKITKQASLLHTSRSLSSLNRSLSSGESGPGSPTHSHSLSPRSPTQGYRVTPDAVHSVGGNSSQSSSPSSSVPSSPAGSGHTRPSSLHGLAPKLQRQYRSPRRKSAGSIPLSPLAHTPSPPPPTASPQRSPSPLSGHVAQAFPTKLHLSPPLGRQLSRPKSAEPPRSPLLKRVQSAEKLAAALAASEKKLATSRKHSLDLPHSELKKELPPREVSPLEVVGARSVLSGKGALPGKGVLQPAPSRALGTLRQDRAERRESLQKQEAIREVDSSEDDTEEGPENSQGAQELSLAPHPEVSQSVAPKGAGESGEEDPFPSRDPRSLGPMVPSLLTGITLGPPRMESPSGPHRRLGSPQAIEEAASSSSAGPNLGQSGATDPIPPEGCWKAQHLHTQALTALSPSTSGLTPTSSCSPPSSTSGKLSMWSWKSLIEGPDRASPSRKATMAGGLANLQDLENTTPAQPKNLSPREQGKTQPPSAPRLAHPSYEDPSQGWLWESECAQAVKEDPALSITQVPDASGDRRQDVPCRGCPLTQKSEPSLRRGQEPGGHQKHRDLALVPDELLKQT
T3 sequence (Q12923 whole entry, the tested form may be a part): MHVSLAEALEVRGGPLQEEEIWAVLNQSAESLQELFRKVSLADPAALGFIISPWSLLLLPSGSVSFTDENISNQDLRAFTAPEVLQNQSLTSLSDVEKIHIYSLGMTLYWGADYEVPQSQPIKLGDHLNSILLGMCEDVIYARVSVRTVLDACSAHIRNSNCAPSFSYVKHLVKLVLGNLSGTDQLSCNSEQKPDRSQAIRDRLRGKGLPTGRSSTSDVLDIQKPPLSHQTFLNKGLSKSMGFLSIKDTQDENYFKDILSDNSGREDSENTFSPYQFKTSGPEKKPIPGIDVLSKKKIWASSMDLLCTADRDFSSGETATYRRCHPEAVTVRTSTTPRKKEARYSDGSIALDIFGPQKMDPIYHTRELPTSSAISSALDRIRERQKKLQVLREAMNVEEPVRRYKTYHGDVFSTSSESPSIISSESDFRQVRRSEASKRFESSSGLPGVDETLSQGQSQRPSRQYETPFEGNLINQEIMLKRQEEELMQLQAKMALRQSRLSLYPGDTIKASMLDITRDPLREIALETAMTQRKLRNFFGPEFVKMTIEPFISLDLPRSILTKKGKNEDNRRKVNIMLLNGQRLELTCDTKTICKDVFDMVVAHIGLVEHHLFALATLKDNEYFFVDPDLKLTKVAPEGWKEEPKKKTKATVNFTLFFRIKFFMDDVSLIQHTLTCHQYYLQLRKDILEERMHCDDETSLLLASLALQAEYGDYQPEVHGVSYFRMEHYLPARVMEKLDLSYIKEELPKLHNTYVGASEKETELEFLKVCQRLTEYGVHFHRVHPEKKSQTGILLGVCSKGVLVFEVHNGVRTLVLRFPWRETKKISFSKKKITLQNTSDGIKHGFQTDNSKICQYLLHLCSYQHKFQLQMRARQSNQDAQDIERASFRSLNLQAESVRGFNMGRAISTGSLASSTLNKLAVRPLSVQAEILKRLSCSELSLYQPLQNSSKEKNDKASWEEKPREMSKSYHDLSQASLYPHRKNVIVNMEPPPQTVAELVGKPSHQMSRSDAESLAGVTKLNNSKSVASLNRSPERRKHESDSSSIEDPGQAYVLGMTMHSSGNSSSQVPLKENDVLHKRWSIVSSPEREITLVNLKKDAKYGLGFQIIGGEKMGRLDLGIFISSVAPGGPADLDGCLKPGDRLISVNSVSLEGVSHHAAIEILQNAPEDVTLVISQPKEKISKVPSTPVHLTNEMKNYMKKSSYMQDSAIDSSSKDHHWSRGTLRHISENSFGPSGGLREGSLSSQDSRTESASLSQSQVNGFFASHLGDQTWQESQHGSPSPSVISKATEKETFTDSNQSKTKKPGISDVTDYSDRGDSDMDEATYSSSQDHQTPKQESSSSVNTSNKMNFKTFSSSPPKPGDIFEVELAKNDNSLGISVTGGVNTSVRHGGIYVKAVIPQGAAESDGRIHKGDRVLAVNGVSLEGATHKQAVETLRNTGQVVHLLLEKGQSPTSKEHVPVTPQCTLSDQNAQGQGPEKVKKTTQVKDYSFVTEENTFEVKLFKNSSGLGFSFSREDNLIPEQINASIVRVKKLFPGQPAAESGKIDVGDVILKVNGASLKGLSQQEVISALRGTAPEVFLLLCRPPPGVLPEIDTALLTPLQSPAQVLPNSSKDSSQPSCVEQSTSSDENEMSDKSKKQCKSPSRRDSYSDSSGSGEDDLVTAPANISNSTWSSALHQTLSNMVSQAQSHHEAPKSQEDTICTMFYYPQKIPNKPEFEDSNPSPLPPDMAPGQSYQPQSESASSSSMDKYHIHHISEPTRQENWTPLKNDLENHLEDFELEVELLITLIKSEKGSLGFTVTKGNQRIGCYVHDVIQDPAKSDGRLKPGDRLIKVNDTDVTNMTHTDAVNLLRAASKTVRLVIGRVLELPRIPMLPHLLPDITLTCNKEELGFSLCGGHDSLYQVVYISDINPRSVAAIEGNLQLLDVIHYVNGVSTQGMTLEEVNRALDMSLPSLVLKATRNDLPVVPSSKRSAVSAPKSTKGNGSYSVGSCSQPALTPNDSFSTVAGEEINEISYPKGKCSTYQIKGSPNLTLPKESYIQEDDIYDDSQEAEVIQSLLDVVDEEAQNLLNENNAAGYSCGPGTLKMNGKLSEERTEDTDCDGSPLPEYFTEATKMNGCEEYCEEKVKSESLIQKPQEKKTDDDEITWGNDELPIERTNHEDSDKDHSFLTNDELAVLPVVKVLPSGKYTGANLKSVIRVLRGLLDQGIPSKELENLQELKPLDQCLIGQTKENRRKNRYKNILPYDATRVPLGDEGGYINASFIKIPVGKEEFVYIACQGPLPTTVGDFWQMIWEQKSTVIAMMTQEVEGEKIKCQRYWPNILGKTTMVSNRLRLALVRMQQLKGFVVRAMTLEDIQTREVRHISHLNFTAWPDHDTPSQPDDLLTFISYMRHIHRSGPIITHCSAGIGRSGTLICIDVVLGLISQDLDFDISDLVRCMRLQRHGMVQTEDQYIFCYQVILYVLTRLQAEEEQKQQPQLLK

Compound	Classification ([1]; PDZ KIAA807)	Classification ([1]; PDZ KIAA0807(S), PDZ Domain 1)	Classification ([2]; PDZ KIAA1634, PDZ Domain 1)	Classification ([4]; PDZ PTPL-1, PDZ Domain 4)	Classification ([1]; PDZ KIAA807 (domain not given))	Classification ([2]; PDZ KIAA1634, PDZ Domain 5)	Classification ([4]; PDZ PTPL-1, PDZ Domain 2)	Classification [3, 5]	Classification ([3]; PDZ BAI-1, PDZ Domain 3)	Classification ([3]; PDZ BAI-1, PDZ Domain 2)	Classification ([3]; PDZ BAI-1, PDZ Domain 6)	Classification ([2]; PDZ KIAA1634, PDZ Domain 2)	Classification ([1]; PDZ KIAA807, PDZ Domain not given)	Classification ([3]; PDZ BAI-1, PDZ Domain 5)
CC(C)C[C@H](NC(=O)[C@H](CC(C)C)NC(=O)[C@@H](NC(=O)[C@H](CC(=O)O)NC(=O)CCCC[C@@H]1SC[C@@H]2NC(=O)N[C@@H]21)[C@@H](C)O)C(=O)N[C@@H](CC(C)C)C(=O)N[C@H](C(=O)N[C@@H](CCC(=O)O)C(=O)N[C@@H](CC(N)=O)C(=O)N[C@@H](CCC(=O)O)C(=O)NCC(=O)N[C@@H](CC(=O)O)C(=O)N[C@@H](CCCCN)C(=O)N[C@H](C(=O)N[C@@H](CCC(=O)O)C(=O)N[C@@H](CCC(=O)O)C(=O)N[C@@H](CCC(N)=O)C(=O)N[C@H](C(=O)N[C@@H](CO)C(=O)N[C@@H](Cc1ccc(O)cc1)C(=O)N[C@H](C(=O)O)C(C)C)C(C)C)[C@@H](C)O)[C@@H](C)O [5H2B_HUMAN] (Biotin-DTLLLTENEGDKTEEQVSYV-OH; C-terminus assumed)	1 (A450 nm 0-1)	1 (A450 nm 0-1)		2 (A450 nm 1-2)			5 (A450 nm of 4 more than 2× repeated)	1 (A450 nm 0-1)	4 (A450 nm 3-4)			5 (A450 nm of 4 more than 2× repeated)		
ISGTPTSTMVHGMTSSSSVV (Biotin-ISGTPTSTMVHGMTSSSSVV) [Clasp-2]			1 (A450 nm 0-1)				1 (A450 nm 0-1)			1 (A450 nm 0-1)		1 (A450 nm 0-1)	1 (A450 nm 0-1)	1 (A450 nm 0-1)

More lines, main results first:

Classification ([1]; PDZ KIAA807)	Classification ([1]; PDZ KIAA0807(S), PDZ Domain 1)	Classification ([2]; PDZ KIAA1634, PDZ Domain 1)	Classification ([4]; PDZ PTPL-1, PDZ Domain 4)	Classification ([1]; PDZ KIAA807 (domain not given))	Classification ([2]; PDZ KIAA1634, PDZ Domain 5)	Classification ([4]; PDZ PTPL-1, PDZ Domain 2)	Compound	Classification [3, 5]	Classification ([3]; PDZ BAI-1, PDZ Domain 3)	Classification ([3]; PDZ BAI-1, PDZ Domain 2)	Classification ([3]; PDZ BAI-1, PDZ Domain 6)	Classification ([2]; PDZ KIAA1634, PDZ Domain 2)	Classification ([1]; PDZ KIAA807, PDZ Domain not given)	Classification ([3]; PDZ BAI-1, PDZ Domain 5)
4 (A450 nm 3-4)	4 (A450 nm 3-4)	3 (A450 nm 2-3)	3 (A450 nm 2-3)				CC(C)C[C@H](NC(=O)[C@H](Cc1c[nH]c2ccccc12)NC(=O)[C@H](Cc1c[nH]cn1)NC(=O)[C@H](CCCNC(=N)N)NC(=O)[C@H](CC(C)C)NC(=O)[C@@H](NC(=O)[C@H](Cc1ccccc1)NC(=O)[C@H](CCC(N)=O)NC(=O)[C@H](CCCNC(=N)N)NC(=O)[C@@H](NC(=O)[C@H](CCC(=O)O)NC(=O)CNC(=O)[C@H](CCCNC(=N)N)NC(=O)[C@H](CC(=O)O)NC(=O)[C@@H](NC(=O)[C@H](CC(C)C)NC(=O)[C@H](CCC(=O)O)NC(=O)[C@H](CCCNC(=N)N)NC(=O)CCCC[C@@H]1SC[C@@H]2NC(=O)N[C@@H]21)C(C)C)C(C)C)[C@@H](C)O)C(=O)N[C@@H](CCCCN)C(=O)N[C@H](C(=O)O)C(C)C [Dopamine transporter (Na+-dependent)] (Biotin-RELVDRGEVRQFTLRHWLKV-OH; C-terminus assumed)	5 (A450 nm of 4 more than 2× repeated)						
	3 (A450 nm 2-3)		1 (A450 nm 0-1)	4 (A450 nm 3-4)	3 (A450 nm 2-3)	5 (A450 nm of 4 more than 2× repeated)	PYSELNYETSHYPASPDSWV (Biotin-PYSELNYETSHYPASPDSWV) [catenin - delta 2]	1 (A450 nm 0-1)	1 (A450 nm 0-1)					
1 (A450 nm 0-1)	1 (A450 nm 0-1)	5 (A450 nm of 4 more than 2× repeated)	5 (A450 nm of 4 more than 2× repeated)		2 (A450 nm 1-2)		ELLQFCRTPNPALKNGQYWV (Biotin-ELLQFCRTPNPALKNGQYWV)	5 (A450 nm of 4 more than 2× repeated)		2 (A450 nm 1-2)	4 (A450 nm 3-4)			

Reference: patent US20050282743A1, “Molecular interactions in cells” (Arbor Vita Corporation, priority 2001, published 2005)
